Source: ChEMBL document CHEMBL5104183, “Discovery of Highly Potent and Selective Matrix Metalloproteinase-7 Inhibitors by Hybridizing the S1' Subsite Binder with Short Peptides” (J Med Chem, 2022)
*1 amine or outer side, *2 acyl side, *3 side chain or, on linkers, in order; H or OH if unused. Where a SMILES comes first, the peptide text is derived from it. [ ]: non-standard residue; d: D form. The star is where a group is joined. Benzenesulfonyl(4-Cl,3-CF3) = O=S(=O)(c1ccc(Cl)c(C(F)(F)F)c1)*; γGlu = O=C(O)[C@H](CCC(=O)[*:2])N[*:1]; β3hP = O=C(O)C[C@@H]1CCCN1

How the values were obtained:
Matrilysin = target: T1, Matrilysin (Homo sapiens, UniProt P09237); assay: Inhibition of human recombinant MMP-7 (Leu18 to Lys267 residues) using MOCAc-Pro-Leu-Gly-Leu-A2pr(Dnp)-Ala-Arg-NH2 as fluorogenic substrate preincubated for 15 mins followed by substrate addition by fluorescence based analysis
T1 sequence (P09237 whole entry): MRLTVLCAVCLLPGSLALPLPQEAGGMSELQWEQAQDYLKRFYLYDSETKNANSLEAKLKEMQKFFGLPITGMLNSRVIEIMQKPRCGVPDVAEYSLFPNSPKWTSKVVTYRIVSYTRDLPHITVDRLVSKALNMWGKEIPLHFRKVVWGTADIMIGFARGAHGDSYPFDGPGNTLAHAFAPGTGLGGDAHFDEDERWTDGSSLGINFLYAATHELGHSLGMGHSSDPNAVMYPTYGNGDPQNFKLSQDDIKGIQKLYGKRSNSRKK

[1] = target: 72 kDa type IV collagenase (Homo sapiens, UniProt P08253); assay: Inhibition of human recombinant MMP-2 ( Ile34 to Cys660 residues) using MOCAc-Pro-Leu-Gly-Leu-A2pr(Dnp)-Ala-Arg-NH2 as fluorogenic substrate preincubated for 15 mins followed by substrate addition by fluorescence based analysis
72 kDa type IV collagenase, sequence (P08253 whole entry): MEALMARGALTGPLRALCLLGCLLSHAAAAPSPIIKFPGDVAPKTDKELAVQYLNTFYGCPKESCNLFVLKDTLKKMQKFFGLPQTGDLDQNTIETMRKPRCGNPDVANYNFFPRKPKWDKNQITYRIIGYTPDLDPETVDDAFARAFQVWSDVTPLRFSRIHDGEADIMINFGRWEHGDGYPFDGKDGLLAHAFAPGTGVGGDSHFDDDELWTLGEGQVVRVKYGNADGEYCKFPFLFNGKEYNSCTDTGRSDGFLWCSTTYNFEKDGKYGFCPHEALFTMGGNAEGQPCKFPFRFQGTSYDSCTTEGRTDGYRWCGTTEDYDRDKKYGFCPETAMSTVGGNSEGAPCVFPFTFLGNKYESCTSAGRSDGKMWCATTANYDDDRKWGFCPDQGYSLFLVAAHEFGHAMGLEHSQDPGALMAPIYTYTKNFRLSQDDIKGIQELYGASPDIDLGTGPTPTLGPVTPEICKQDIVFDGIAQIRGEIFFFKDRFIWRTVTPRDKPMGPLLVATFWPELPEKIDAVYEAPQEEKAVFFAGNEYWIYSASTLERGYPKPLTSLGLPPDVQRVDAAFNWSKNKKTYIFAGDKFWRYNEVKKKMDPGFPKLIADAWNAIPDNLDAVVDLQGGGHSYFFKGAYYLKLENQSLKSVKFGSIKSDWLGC

Stromelysin-1 = Stromelysin-1 (Homo sapiens, UniProt P08254); assay: Inhibition of human recombinant MMP-3 (Tyr18 to Cys477 residues ) using MOCAc-Arg-Pro-Lys-Pro-Val-Glu-Nva-Trp-Arg-Lys(Dnp)-NH2 as fluorogenic substrate preincubated for 15 mins followed by substrate addition by fluorescence based analysis
Stromelysin-1, sequence (P08254 whole entry): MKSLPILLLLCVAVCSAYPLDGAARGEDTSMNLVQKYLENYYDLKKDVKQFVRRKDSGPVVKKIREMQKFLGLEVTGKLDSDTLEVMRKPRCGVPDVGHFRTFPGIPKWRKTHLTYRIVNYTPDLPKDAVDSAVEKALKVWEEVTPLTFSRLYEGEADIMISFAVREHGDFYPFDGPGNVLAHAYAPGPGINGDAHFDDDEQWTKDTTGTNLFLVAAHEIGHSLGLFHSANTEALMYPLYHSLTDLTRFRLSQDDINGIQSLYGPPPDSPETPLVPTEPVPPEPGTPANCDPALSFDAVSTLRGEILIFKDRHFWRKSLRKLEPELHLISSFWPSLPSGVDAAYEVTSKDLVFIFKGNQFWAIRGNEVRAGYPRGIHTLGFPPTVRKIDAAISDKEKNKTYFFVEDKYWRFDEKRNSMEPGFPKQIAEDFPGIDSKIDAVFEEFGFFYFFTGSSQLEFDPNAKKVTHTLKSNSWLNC

Neutrophil collagenase = Neutrophil collagenase (Homo sapiens, UniProt P22894); assay: Inhibition of human recombinant MMP-8 (Phe21 to Gly467 residues) using MOCAc-Pro-Leu-Gly-Leu-A2pr(Dnp)-Ala-Arg-NH2 as fluorogenic substrate preincubated for 15 mins followed by substrate addition by fluorescence based analysis
Neutrophil collagenase, sequence (P22894 whole entry): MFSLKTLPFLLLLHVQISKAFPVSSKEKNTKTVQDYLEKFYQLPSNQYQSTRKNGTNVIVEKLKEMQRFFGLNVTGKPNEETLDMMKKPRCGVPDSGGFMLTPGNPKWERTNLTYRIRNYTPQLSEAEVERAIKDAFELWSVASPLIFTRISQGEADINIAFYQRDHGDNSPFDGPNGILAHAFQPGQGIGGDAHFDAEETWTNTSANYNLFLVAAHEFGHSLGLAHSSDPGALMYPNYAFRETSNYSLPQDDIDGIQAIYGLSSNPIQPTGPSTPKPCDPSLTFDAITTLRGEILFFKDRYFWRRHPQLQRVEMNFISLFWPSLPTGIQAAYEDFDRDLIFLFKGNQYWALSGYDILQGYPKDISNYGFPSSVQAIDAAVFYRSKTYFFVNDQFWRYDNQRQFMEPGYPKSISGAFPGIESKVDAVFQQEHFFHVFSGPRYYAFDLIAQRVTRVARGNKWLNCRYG

[2] = target: Matrix metalloproteinase-9 (Homo sapiens, UniProt P14780); assay: Inhibition of human recombinant MMP-9 (Ala20 to Asp707 residues) using MOCAc-Pro-Leu-Gly-Leu-A2pr(Dnp)-Ala-Arg-NH2 as fluorogenic substrate preincubated for 15 mins followed by substrate addition by fluorescence based analysis
Matrix metalloproteinase-9, sequence (P14780 whole entry): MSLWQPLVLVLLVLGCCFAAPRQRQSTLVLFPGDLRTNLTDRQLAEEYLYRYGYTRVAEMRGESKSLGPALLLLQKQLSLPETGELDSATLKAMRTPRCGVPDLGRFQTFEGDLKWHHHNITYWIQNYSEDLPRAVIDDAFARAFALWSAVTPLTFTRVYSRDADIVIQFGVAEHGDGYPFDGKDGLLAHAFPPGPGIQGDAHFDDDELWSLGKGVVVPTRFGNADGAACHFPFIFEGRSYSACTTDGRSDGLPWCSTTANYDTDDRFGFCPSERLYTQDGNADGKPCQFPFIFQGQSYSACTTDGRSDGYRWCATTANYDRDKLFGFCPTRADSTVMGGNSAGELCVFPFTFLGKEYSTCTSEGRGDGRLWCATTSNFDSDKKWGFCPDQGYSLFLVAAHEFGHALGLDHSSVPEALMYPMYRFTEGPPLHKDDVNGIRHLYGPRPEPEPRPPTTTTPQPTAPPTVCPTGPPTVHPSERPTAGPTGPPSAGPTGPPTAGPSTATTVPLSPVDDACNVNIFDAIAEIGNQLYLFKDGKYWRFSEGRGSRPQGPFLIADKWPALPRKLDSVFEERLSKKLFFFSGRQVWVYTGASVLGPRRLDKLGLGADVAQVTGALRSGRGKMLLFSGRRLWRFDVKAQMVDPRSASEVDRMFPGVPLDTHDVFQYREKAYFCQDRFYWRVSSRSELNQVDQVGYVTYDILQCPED

[3] = target: Macrophage metalloelastase (Homo sapiens, UniProt P39900); assay: Inhibition of human recombinant MMP-12 (Leu17 to Cys470 residues) using MOCAc-Pro-Leu-Gly-Leu-A2pr(Dnp)-Ala-Arg-NH2 as fluorogenic substrate preincubated for 15 mins followed by substrate addition by fluorescence based analysis
Macrophage metalloelastase, sequence (P39900 whole entry): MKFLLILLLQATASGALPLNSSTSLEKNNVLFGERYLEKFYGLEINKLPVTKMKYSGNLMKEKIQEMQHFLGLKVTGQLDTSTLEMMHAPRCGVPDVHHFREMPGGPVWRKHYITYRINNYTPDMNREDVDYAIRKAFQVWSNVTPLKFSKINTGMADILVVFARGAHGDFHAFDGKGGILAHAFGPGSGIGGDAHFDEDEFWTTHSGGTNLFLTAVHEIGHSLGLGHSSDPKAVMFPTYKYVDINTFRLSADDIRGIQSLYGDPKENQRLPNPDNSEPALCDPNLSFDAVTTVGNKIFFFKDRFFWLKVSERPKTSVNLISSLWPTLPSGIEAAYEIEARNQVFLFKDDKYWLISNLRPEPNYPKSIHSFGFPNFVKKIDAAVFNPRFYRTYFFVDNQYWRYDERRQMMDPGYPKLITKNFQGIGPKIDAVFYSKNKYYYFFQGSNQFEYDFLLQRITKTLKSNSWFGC

Collagenase 3 = Collagenase 3 (Homo sapiens, UniProt P45452); assay: Inhibition of human recombinant MMP-13 (Leu20 to Cys471 residues) using MOCAc-Pro-Leu-Gly-Leu-A2pr(Dnp)-Ala-Arg-NH2 as fluorogenic substrate preincubated for 15 mins followed by substrate addition by fluorescence based analysis
[4] = target: Matrix metalloproteinase-14 (Homo sapiens, UniProt P50281); assay: Inhibition of human recombinant C-terminal 10-His tagged MMP-14 ( Ala21 to Gly284 residues) using MOCAc-Lys-Pro-Leu-Gly-Leu-A2pr(Dnp)-Ala-Arg-NH2 as fluorogenic substrate preincubated for 15 mins followed by substrate addition by fluorescence based analysis
[5] = Stability in human liver microsomes at 1 uM incubated for 15 mins by liquid chromatography-mass spectrometry; type: ADME, Microsome; conditions: 0.25 h
[6] = Stability in human serum incubated for 4 hrs by liquid chromatography-tandem mass spectrometry; type: ADME, cell-free
Homo sapiens [7] = species on record: Homo sapiens; assay: Selectivity index, ratio of IC50 for human recombinant MMP-12 to IC50 for human recombinant MMP-7
Homo sapiens [8] = species on record: Homo sapiens; assay: Selectivity index, ratio of IC50 for human recombinant MMP-14 to IC50 for human recombinant MMP-7
Interstitial collagenase = target: T2, Interstitial collagenase (Homo sapiens, UniProt P03956); assay: Inhibition of human recombinant MMP-1 (Phe20 to Asn469 residue) using MOCAc-Lys-Pro-Leu-Gly-Leu-A2pr(Dnp)-Ala-Arg-NH2 as fluorogenic substrate preincubated for 15 mins followed by substrate addition by fluorescence based analysis
T2 sequence (P03956 whole entry): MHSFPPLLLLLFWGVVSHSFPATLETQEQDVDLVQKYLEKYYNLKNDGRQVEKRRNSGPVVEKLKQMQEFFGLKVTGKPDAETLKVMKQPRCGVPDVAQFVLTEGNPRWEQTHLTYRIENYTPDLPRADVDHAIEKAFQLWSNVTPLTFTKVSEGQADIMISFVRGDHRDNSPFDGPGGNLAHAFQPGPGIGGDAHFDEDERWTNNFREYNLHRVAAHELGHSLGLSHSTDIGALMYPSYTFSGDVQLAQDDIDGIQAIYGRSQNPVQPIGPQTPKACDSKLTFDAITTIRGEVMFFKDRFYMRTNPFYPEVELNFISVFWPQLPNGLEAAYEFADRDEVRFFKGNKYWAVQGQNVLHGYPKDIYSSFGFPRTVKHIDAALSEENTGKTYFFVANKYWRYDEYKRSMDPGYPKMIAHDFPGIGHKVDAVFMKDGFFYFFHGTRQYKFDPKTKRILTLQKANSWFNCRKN

| Structure (SMILES) | IC50 (Matrilysin) | IC50 [1] | IC50 (Stromelysin-1) | IC50 (Neutrophil collagenase) | IC50 [2] | IC50 [3] | IC50 (Collagenase 3) | IC50 [4] | also measured |
| --- | --- | --- | --- | --- | --- | --- | --- | --- | --- |
| CSCC[C@H](NC(=O)[C@H](CC(C)C)NC(=O)[C@H](CC(C)C)NC(=O)CC[C@H](NS(=O)(=O)c1ccc(Cl)c(C(F)(F)F)c1)C(=O)O)C(N)=O | 0.78 µM |  |  |  |  |  |  |  |  |
| CC(C)C[C@H](NC(=O)CNC(=O)CC[C@H](NS(=O)(=O)c1ccc(Cl)c(C(F)(F)F)c1)C(=O)O)C(=O)N[C@H](C(=O)N1CCC[C@H]1CC(N)=O)C(C)C ({Benzenesulfonyl(4-Cl,3-CF3)-γGlu}-GLV[β3hP]-NH2) | 0.01 µM | 11 µM | > 100 µM | 59 µM | > 100 µM | 2.9 µM | > 100 µM | 0.45 µM | Stability [5]: Stable; Stability [6]: Stable; Ratio IC50 (Homo sapiens [7]): 290; Ratio IC50 (Homo sapiens [8]): 45 |
| CC(C)C[C@H](NC(=O)[C@H](C)NC(=O)CC[C@H](NS(=O)(=O)c1ccc(Cl)c(C(F)(F)F)c1)C(=O)O)C(=O)N[C@@H](C)C(N)=O | 1.7 µM |  |  |  |  |  |  |  |  |
| CC(C)C[C@H](NC(=O)CNC(=O)CC[C@H](NS(=O)(=O)c1ccc(Cl)c(C(F)(F)F)c1)C(=O)O)C(=O)N[C@H](C(=O)N1CCC[C@H]1C(N)=O)C(C)C ({Benzenesulfonyl(4-Cl,3-CF3)-γGlu}-GLVP-NH2) | 0.019 µM |  |  |  |  |  |  |  |  |
| CSCC[C@H](NC(=O)[C@H](CC(C)C)NC(=O)CNC(=O)CC[C@H](NS(=O)(=O)c1ccc(Cl)c(C(F)(F)F)c1)C(=O)O)C(N)=O | 0.12 µM | 73 µM | > 100 µM | > 100 µM | > 100 µM | 20 µM | > 100 µM | 25 µM |  |
| CSCC[C@H](NC(=O)[C@H](Cc1ccccc1)NC(=O)CNC(=O)CC[C@H](NS(=O)(=O)c1ccc(Cl)c(C(F)(F)F)c1)C(=O)O)C(N)=O | 0.11 µM |  |  |  |  |  |  |  |  |
| CSCC[C@H](NC(=O)[C@H](CC(C)C)NC(=O)[C@H](CCC(N)=O)NC(=O)CC[C@H](NS(=O)(=O)c1ccc(Cl)c(C(F)(F)F)c1)C(=O)O)C(N)=O | 1.3 µM |  |  |  |  |  |  |  |  |
| O=C(O)[C@H](CCc1ccccc1)NS(=O)(=O)c1ccc(Cl)c(C(F)(F)F)c1 | 6.1 µM | > 100 µM | > 100 µM | > 100 µM | > 100 µM | > 100 µM | > 100 µM | > 100 µM | IC50 (Interstitial collagenase): > 100 µM |

Further molecules by falling IC50 (Matrilysin), results first:

| IC50 (Matrilysin) | IC50 [1] | IC50 (Stromelysin-1) | IC50 (Neutrophil collagenase) | IC50 [2] | IC50 [3] | IC50 (Collagenase 3) | IC50 [4] | Structure (SMILES) | also measured |
| --- | --- | --- | --- | --- | --- | --- | --- | --- | --- |
| 7.5 µM |  |  |  |  |  |  |  | CSCC[C@H](NC(=O)[C@H](CC(C)C)NC(=O)[C@H](CC(N)=O)NC(=O)CC[C@H](NS(=O)(=O)c1ccc(Cl)c(C(F)(F)F)c1)C(=O)O)C(N)=O |  |
| 6.7 µM |  |  |  |  |  |  |  | CSCC[C@H](NC(=O)[C@H](C)NC(=O)[C@H](C)NC(=O)CC[C@H](NS(=O)(=O)c1ccc(Cl)c(C(F)(F)F)c1)C(=O)O)C(N)=O |  |
| 5.7 µM |  |  |  |  |  |  |  | CSCC[C@H](NC(=O)[C@H](CC(C)C)NC(=O)[C@H](CO)NC(=O)CC[C@H](NS(=O)(=O)c1ccc(Cl)c(C(F)(F)F)c1)C(=O)O)C(N)=O |  |
| 4.7 µM |  |  |  |  |  |  |  | CSCC[C@H](NC(=O)[C@H](CC(C)C)NC(=O)[C@H](C)NC(=O)C[C@H](NS(=O)(=O)c1ccc(Cl)c(C(F)(F)F)c1)C(=O)O)C(N)=O |  |
| 0.44 µM | > 100 µM | > 100 µM | > 100 µM | > 100 µM | 40 µM | > 100 µM | > 100 µM | CSCC[C@H](NC(=O)[C@H](CC(C)C)NC(=O)[C@H](C)NC(=O)CC[C@H](NS(=O)(=O)c1ccc(Cl)c(C(F)(F)F)c1)C(=O)O)C(N)=O |  |
| 0.056 µM | 45 µM | > 100 µM | > 100 µM | > 100 µM | 28 µM | > 100 µM | 17 µM | CC(C)C[C@H](NC(=O)CNC(=O)CC[C@H](NS(=O)(=O)c1ccc(Cl)c(C(F)(F)F)c1)C(=O)O)C(=O)N[C@H](C(N)=O)C(C)C | IC50 (Interstitial collagenase): > 100 µM |
| 0.016 µM | 33 µM | > 100 µM | > 100 µM | > 100 µM | 12 µM | > 100 µM | 11 µM | CC(C)C[C@H](NC(=O)CNC(=O)CC[C@H](NS(=O)(=O)c1ccc(Cl)c(C(F)(F)F)c1)C(=O)O)C(=O)N[C@H](C(=O)N[C@@H](C)C(N)=O)C(C)C ({Benzenesulfonyl(4-Cl,3-CF3)-γGlu}-GLVA-NH2) | IC50 (Interstitial collagenase): > 100 µM; Stability [5]: Stable; Stability [6]: Stable |
